Where two headings read alike, the source gives them in different places.

These results are taken from patent publication US5496947A, “Quinolone carboxylic acid derivatives” (Dong Wha Pharmaceutical Industrial Co., Ltd., priority 1994, dated 1996).

Data set [1] relates to Proteus vulgaris ATCC 13315. The data set is described as follows: MIC, 2-fold dilution method in micro-well plate, P. vulgaris. The class given is cell-based. In outline: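 Two-fold broth dilution in micro-well plates; compounds tested as hydrochloride salts in water. Bacteria from overnight BHI broth culture at 37 °C inoculated to about (10^5–10^6)/2 cfu/ml final; MIC read after incubation at 37 °C.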

The test system of data set [2] is Streptococcus pneumoniae ATCC 6303. The experiment in a line: MIC, 2-fold dilution method in micro-well plate, S. pneumoniae. In kind it is cell-based. Conditions: S. pneuinoniae ATCC6303, 37° C., read-out: Minimum Inhibitory Concentration. In outline: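 MIC by 2-fold serial microdilution of compounds as hydrochloride salts in water, against a BHI-grown overnight culture. Final inoculum was about (10^5–10^6)/2 cfu/ml. Plates were incubated at 37° C before the minimum inhibitory concentration was read.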

For data set [3], the system named is Streptococcus faecalis ATCC 19433. The data set is described as follows: MIC, 2-fold dilution method in micro-well plate, S. faecalis ATCC 19433. In kind it is cell-based. Conditions: Enterococcus faecalis; S. faecalis ATCC19433, 37° C.; read-out: Minimum Inhibitory Concentration. In outline:
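Broth microdilution (2-fold series) with test compounds as hydrochloride salts in sterile water; overnight BHI culture at 37 °C inoculated to about (10^5-10^6)/2 cfu/ml per well. MIC read after incubation at 37 °C.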

The test system of data set [4] is Shigella sonnei ATCC 25931. The experiment in a line: MIC, 2-fold dilution method in micro-well plate, S. sonnei. Conditions: S. sonnei ATCC25931, 37° C., read-out: Minimum Inhibitory Concentration. In kind it is cell-based. In outline: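 Broth microdilution with 2-fold serial dilutions of compounds as hydrochloride salts in water. Overnight BHI culture of S. sonnei at 37° C added to give about (10^5-10^6)/2 cfu/ml per well. MIC read after incubation at 37° C.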

The subject of data set [5] is Serratia marcescens ATCC 8100. The data set is described as follows: MIC, 2-fold dilution method in micro-well plate, S. marcescens. The class given is cell-based. In outline: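 Broth microdilution (2-fold series) of hydrochloride salts in water; S. marcescens from overnight BHI culture at 37 °C inoculated to about (10^5-10^6)/2 cfu/ml. MIC read after cultivation at 37 °C.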

The subject of data set [6] is Klebsiella pneumoniae ATCC 13883. The experiment in a line: MIC, 2-fold dilution method in micro-well plate, K. pneumoniae. In kind it is cell-based. In outline:
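Two-fold broth dilution in micro-wells of compound as hydrochloride salt in water. Overnight BHI culture at 37 °C inoculated to about (10^5–10^6)/2 cfu/ml final. MIC read after incubation at 37 °C.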

For a further data set, the system named is Enterobacter cloacae. The experiment in a line: MIC, 2-fold dilution method in micro-well plate, E. cloacae. The class given is cell-based. Conditions: read-out: Minimum Inhibitory Concentration.
Data set [7] relates to Haemophilus influenza ATCC 35056. The experiment in a line: MIC, 2-fold dilution method in micro-well plate, H. influenzae. The class given is cell-based. Conditions: H. influenzae ATCC35056, 37° C.; read-out: Minimum Inhibitory Concentration. In outline: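 MIC by 2-fold broth microdilution; compounds as hydrochloride salts in sterile water (10 mg/ml stock). Overnight BHI culture inoculated at about (10^5-10^6)/2 cfu/ml final; MIC read after cultivation at 37° C.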

Data set [8] has as its system Salmonella typhimurium ATCC 14028. The experiment in a line: MIC, 2-fold dilution method in micro-well plate, S. typhimurium. The class given is cell-based. The following applies: Salmonella enterica, read-out: Minimum Inhibitory Concentration. In outline:
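Twofold broth microdilution with overnight BHI culture at 37 °C; inoculum about (10^5-10^6)/2 cfu/ml in wells. Compounds tested as hydrochloride salts from 10 mg/ml aqueous stock; MIC read after incubation at 37 °C.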

In data set [9] the test system is Citrobacter freundii ATCC 8090. The data set is described as follows: MIC, 2-fold dilution method in micro-well plate, C. freundii. The class given is cell-based. In outline:
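Broth 2-fold microdilution; compounds tested as hydrochloride salts in sterile water. Inoculum from overnight BHI broth culture at 37° C., final about (10^5-10^6)/2 cfu/ml per well; MIC read after incubation at 37° C.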

Data set [10] deals with Escherichia coli ATCC 25922. The data set is described as follows: MIC, 2-fold dilution method in micro-well plate, E. coli. The class given is cell-based. In outline: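 Broth two-fold microdilution of hydrochloride salts in water against E. coli ATCC 25922 grown overnight in BHI at 37° C. Final inoculum about (10^5 -10^6)/2 cfu/ml; after incubation at 37° C, MIC was recorded.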

Data set [11] concerns Acinetobacter calcoaceticus. The data set is described as follows: MIC, 2-fold dilution method in micro-well plate, A. calcoaceticus. In kind it is cell-based.
Data set [12] concerns Shigella flexneri ATCC 12022. The experiment in a line: MIC, 2-fold dilution method in micro-well plate, S. flexneri. The class given is cell-based. The following applies: S. flexneri ATCC12022, 37° C., read-out: Minimum Inhibitory Concentration. In outline:
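Two-fold broth dilution in microwell plates; compounds as hydrochloride salts in sterile water. Overnight BHI-broth culture at 37 °C used as inoculum, giving about (10^5–10^6)/2 cfu/ml per well. MIC read after cultivation at 37 °C.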

Data set [13] deals with Pseudomonas aeruginosa ATCC 27853. The experiment in a line: MIC, 2-fold dilution method in micro-well plate, P. aeruginosa. In kind it is cell-based. The following applies: P. aerugirnosa ATCC27853, 37° C., read-out: Minimum Inhibitory Concentration. In outline: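 MIC was recorded after 37° C incubation of bacteria with serial two-fold dilutions of compound. Bacteria came from an overnight 37° C BHI culture; the final inoculum was about (10^5-10^6)/2 cfu/ml. Compounds were tested as hydrochloride salts diluted in sterile water from a 10 mg/ml stock.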

Data set [14] can be described thus: Pharmacokinetic properties in ICR mouse, oral and subcutaneous, Bio-Assay (Agar well method). In kind it is in vivo. Conditions: 40 mg/kg, average of four tests; for dose excreted: urine, read-out: Urine Recovery. On the procedure: The pharmacokinetic properties are tested by orally administrating and subcutaneously injecting a test compound and a substance for control to a ICR Mouse with 22 g±10% weight, drawing blood after 10, 20, 30, 45, 60, 90, 120, 150, 180 and […] and analyzed by Bio-Assay (Agar well method).

Data set [15] has as its system Streptococcus faecalis ATCC 29212. The data set is described as follows: MIC, 2-fold dilution method in micro-well plate, S. faecalis ATCC 29212. In kind it is cell-based. The following applies: Enterococcus faecalis; S. faecalis ATCC29212, 37° C.; read-out: Minimum Inhibitory Concentration. In outline: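 Compounds were tested as hydrochloride salts by 2-fold serial dilution in water in micro-well plates. Final inoculum was about (10^5-10^6)/2 cfu/ml from overnight BHI broth culture. MIC was read after culture at 37° C.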

For data set [16], the system named is Enterobacter aerogenes ATCC 13048. The experiment in a line: MIC, 2-fold dilution method in micro-well plate, E. aerogenes. In kind it is cell-based. The following applies: Klebsiella aerogenes. In outline: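 Two-fold broth microdilution of hydrochloride salts dissolved in sterile water (10 mg/ml stock). Inoculum from overnight BHI culture at 37° C, about (10^5–10^6)/2 cfu/ml final in well. MIC read after incubation at 37° C.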

Data set [17] relates to Streptococcus pyrogens ATCC 19615. The data set is described as follows: MIC, 2-fold dilution method in micro-well plate, S. pyrogens. The class given is cell-based. Conditions: S. pyrogenes ATCC19615, 37° C., read-out: Minimum Inhibitory Concentration. In outline: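 Inoculum from overnight 37° C brain-heart infusion culture gave roughly (10^5-10^6)/2 cfu/mL per well against two-fold serial dilutions of hydrochloride-salt compound in water. Lowest concentration inhibiting growth after 37° C incubation taken as MIC.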

The mark [18] stands for this setting: P. vulgaris ATCC13315, 37° C., read-out: Minimum Inhibitory Concentration.
The mark [19] stands for this setting: S. marcescens ATCC8100, 37° C., read-out: Minimum Inhibitory Concentration.
Setting [20] is: K. pneumoniae ATCC13883, 37° C., read-out: Minimum Inhibitory Concentration.
[21] abbreviates: E. cloacae ATCC23355 (as in tables), 37° C.
Where [22] appears, read: ATCC8090, read-out: Minimum Inhibitory Concentration.
Setting [23] is: E. coli ATCC25922, 37° C., read-out: Minimum Inhibitory Concentration.
[24] abbreviates: E. aerogenes ATCC13048, 37° C., read-out: Minimum Inhibitory Concentration.
Setting [25] is: ATCC13315, read-out: Minimum Inhibitory Concentration.
Where [26] appears, read: ATCC8100, read-out: Minimum Inhibitory Concentration.
The mark [27] stands for this setting: ATCC13883, read-out: Minimum Inhibitory Concentration.
[28] abbreviates: A. calcoaceticus ATCC8090 (as in tables), 37° C., read-out: Minimum Inhibitory Concentration.

As for `Cc1c(F)c(N2CCNC(C)C2)cc2c1c(=O)c(C(=O)O)cn2-c1ccc(F)cn1.Cl` (centres unmarked) [Example 29, 5-methyl-7-(3-methyl-1-piperazinyl)-1-(5-fluoro-2-pyridyl)-6-fluoro-1,4-dihydro-4-oxoquinoline-3-carboxylic acid hydrochloride], the MIC is 1.25 µg/mL in [1] (setting [18]); 10 µg/mL in [2]; 5 µg/mL in data set [3]; 0.625 µg/mL in data set [4]; 1.25 µg/mL in data set [5] (setting [19]); 1.25 µg/mL in data set [6] (setting [20]). The MIC is 0.313 µg/mL in the data set with Enterobacter cloacae (setting [21]); 0.625 µg/mL in data set [7]; 0.625 µg/mL in [8]; 0.625 µg/mL in [9] (setting [22]); 1.25 µg/mL in [10] (setting [23]); 0.625 µg/mL in data set [11] (setting [22]). Besides, the MIC in data set [12] stood at 0.625 µg/mL; in [13], 1.25 µg/mL; in data set [15], 5 µg/mL; in data set [16] (setting [24]), 0.313 µg/mL; in data set [17], 10 µg/mL. This compound yielded an AUC in data set [14] (blood, sc, S.C) of 32600 ng·h/mL. In [14] (blood, sc, S.C), this compound displayed a Cmax of 8340 ng/mL. In addition, the Tmax in [14] (blood, sc, S.C) came to 1.25 h. The same compound had a half-life in data set [14] (blood, sc, S.C) of 2.31 h. Further, the dose excreted in data set [14] (po, P.O) was determined as 9.35%; in data set [14] (sc, S.C), 12.8%.

In the case of `CN1CCN(c2cc3c(cc2F)c(=O)c(C(=O)O)cn3-c2ccncc2F)CC1.Cl` [Example 2, 1-(3-fluoro-4-pyridyl)-6-fluoro-7-(4-methyl-1-piperazinyl)-1,4-dihydro-4-oxoquinoline-3-carboxylic acid hydrochloride], the MIC is 0.625 µg/mL in [1] (setting [25]); 10 µg/mL in [2]; 5 µg/mL in data set [3]; 0.625 µg/mL in data set [4]; 0.625 µg/mL in data set [5] (setting [26]); 0.625 µg/mL in data set [6] (setting [27]). In addition, the MIC in the data set on Enterobacter cloacae is 0.625 µg/mL; in data set [7], 0.625 µg/mL; in data set [8], 0.625 µg/mL; in [9] (setting [22]), 0.625 µg/mL; in data set [10] (setting [23]), 1.25 µg/mL; in [11] (setting [22]) it was 0.625 µg/mL. Moreover, the MIC in data set [12] is 0.625 µg/mL; in data set [13], 0.625 µg/mL; in [15] it was 5 µg/mL; in data set [16] (setting [24]) it was 1.25 µg/mL; in data set [17], 10 µg/mL.

As for `Cl.N[C@H]1CCN(c2cc3c(cc2F)c(=O)c(C(=O)O)cn3-c2ccc(F)cn2)C1` [Example 22, 1-(5-fluoro-2-pyridyl)-6-fluoro-7-[(3S)-3-amino-1-pyrrolidinyl]-1,4-dihydro-4-oxoquinoline-3-carboxylic acid hydrochloride], the MIC was found to be 0.078 µg/mL in data set [1] (setting [18]); 1.25 µg/mL in [2]; 0.625 µg/mL in data set [3]; 0.039 µg/mL in data set [4]; 0.078 µg/mL in [5] (setting [19]); 0.039 µg/mL in data set [6] (setting [20]). The MIC in the data set on Enterobacter cloacae (setting [21]) was 0.078 µg/mL; in data set [7], 0.078 µg/mL; in data set [8] (S. typhisurium ATCC14028, 37° C.), 0.078 µg/mL; in data set [9] (C. freundii ATCC8090, 37° C., read-out: Minimum Inhibitory Concentration), 0.039 µg/mL; in [10] (setting [23]), 0.039 µg/mL; in data set [11] (setting [28]), 0.313 µg/mL. The MIC came out at 0.156 µg/mL in data set [12]; 0.156 µg/mL in data set [13]; 1.25 µg/mL in [15]; 0.078 µg/mL in [16] (setting [24]); 2.5 µg/mL in data set [17].

As to `CC1CN(c2cc3c(cc2F)c(=O)c(C(=O)O)cn3-c2ccncc2F)CC(C)N1.Cl` (centres unmarked) [Example 4, 1-(3-fluoro-4-pyridyl)-6-fluoro-7-(3,5-dimethyl-1-piperazinyl)-1,4dihydro-4-oxoquinoline-3-carboxylic acid hydrochloride], the MIC worked out at 0.625 µg/mL in [1] (setting [25]); 10 µg/mL in data set [2]; 5 µg/mL in data set [3]; 0.625 µg/mL in [4]; 1.25 µg/mL in [5] (setting [26]); 0.625 µg/mL in data set [6] (setting [27]). Moreover, the MIC with Enterobacter cloacae was 0.625 µg/mL; in [7] it was 1.25 µg/mL; in data set [8], 1.25 µg/mL; in data set [9] (setting [22]) it was 1.25 µg/mL; in data set [10] (ATCC25922, read-out: Minimum Inhibitory Concentration), 1.25 µg/mL; in data set [11] (setting [28]) it was 2.5 µg/mL. Also, the MIC was 1.25 µg/mL in data set [12]; 0.625 µg/mL in data set [13]; 5 µg/mL in data set [15]; 1.25 µg/mL in data set [16] (ATCC13048, read-out: Minimum Inhibitory Concentration); 10 µg/mL in data set [17].
